Measurements published in US7488583B2, “Fragment complementation assays for G-protein-coupled receptors and their signaling pathways” (Odyssey Thera, Inc., priority 2003, dated 2009).
“Also recorded” adds a separate entry of the source. Non-standard residues stand in square brackets, D forms with d. Residues, ends and D or L forms follow the SMILES beside them. *: point of attachment. Nle = CCCC[C@H](N)C(=O)O; Cbz = O=C(OCc1ccccc1)*

Columns and labels:
[1] = test system: association of beta-arrestin2 and ubiquitin; assay: beta-arrestin2/ubiquitin PCA (ubiquitination of beta-arrestin2); format: cell-based; conditions: for beta-arrestin2/ubiquitin assay fluorescence, positive pixel mean (PPM) as percent of control (FIG. 12): versus negative control (vehicle alone)
From the text: To illustrate another example of a novel assay constructed using the methods provided herein, we developed a protein-fragment complementation assay to measure the association of beta-arrestin2 and ubiquitin (see FIGS. 11-12) using the methods described here. Ubiquitin is a highly conserved 76-amino acid polypeptide. Since its discovery in the mid-1970s, ubiquitin has been associated with cellular house-keeping functions such as eliminating damaged proteins. It has recently become clear that ubiquitin is involved in a variety of other vital processes at different subcellular locations ranging from the plasma membrane to the nucleus, including cell-cycle progression, signal transduction, transcriptional regulation, receptor down-regulation, and endocytosis. Ubiquitin is covalently attached to proteins through an isopeptide bond between its carboxy-terminal glycine and the epsilon-amino group of lysines in the target protein. This attachment is catalyzed by enzymes that activate and ultimately conjugate the ubiquitin moiety to a lysine residue in the substrate. This can be followed by further additions of ubiquitin to specific lysine residues within the linked ubiquitin itself, resulting in a poly-ubiquitin chain. This covalent modification can be reversed by unique proteases specific for the iso-peptide linkage. Although ubiquitin is the best-characterized polypeptide modifier, other polypeptides (often referred to as Ubiquitin-like, or Ubl) are also conjugated to targets in analogous reactions. These ‘alternative’ modifiers, which differ from ubiquitin in sequence similarity but which are structurally similar to ubiquitin, include SUMO; Nedd8; Hub 1, ISG15 or UCRP; and Apg 12 (reviewed in Aguilar).
Previously, assays for ubiquitination have relied upon immunoblotting of proteins with anti-ubiquitin antibodies, or on labelling of proteins with a fluorophore-tagged ubiquitin polypeptide. […] FIGS. 11-12 show the results of the transient transfection of the PCA constructs. […] Since the process of ubiquitination targets proteins for degradation, we used ALLN (see Table 3 for concentration) to inhibit the proteasome activity of the cell in order to ensure that the arrestin/ubiquitin complex would accumulate in the cells and be detectable. […] The effects of Trichostatin A are particularly interesting in light of recent findings linking HDAC inhibition with the attenuation of cardiac hypertrophy induced by isoproterenol or by overexpression of proteins linked to cardiac growth and proliferation (Cardiac hypertrophy and histone deacetylase-dependent transcriptional repression mediated by the atypical homeodomain protein Hop; H. Kook, et al., J Clin Invest. 2003 September; 112(6):863-71). […]

[2] = biological target: T1, interaction of the beta-adrenergic receptor with beta-arrestin2 (Homo sapiens, UniProt P07550); format: cell-based; conditions: HEK293T stable line, 480 minutes, concentrations of Table 3
T1 construct: (Gly-Gly-Gly-Gly-Ser)2 linker between receptor and YFP[2]; YFP[2]; (EYFP amino acids 159-239); expressed in transfected cells
Experimental: For the betaARR2/beta2AR, stable cell lines were generated.
Drug concentrations initially were chosen based on literature references and were further refined to ensure lack of toxicity in HEK293 cells, based on lactate dehydrogenase (LDH) toxicity analyses. All liquid handling steps were performed using the Biomek FX platform (Beckman Instruments, Fullerton, Calif.). Cells expressing the betaARR2/beta2AR PCA were incubated in cell culture medium containing drugs for 30 min., 90 min., and 8 hours. […] Cells were subsequently rinsed with HBSS (Invitrogen) and maintained in the same buffer during image acquisition. […] All treatment conditions were run in duplicate yielding a total of 8 images for each wavelength and treatment condition.
For these high-content assays, image analysis is needed to convert the acquired images into fluorescence intensity and, if desired, to resolve the subcellular distribution of the fluorescence signal. […] Raw images in 16-bit grayscale TIFF format were analyzed using ImageJ API/library as described in the literature. […] Next a threshold was established to separate the foreground from background. An iterative algorithm based on Particle Analyzer from ImageJ was applied to the thresholded Hoechst channel image (HI) to obtain the total cell count. The nuclear region of a cell (nuclear mask) was also derived from the thresholded HI. A WGA mask was generated similarly from the thresholded Texas Red image. […] To calculate the global background (gBG), a histogram was obtained from the un-thresholded YI and the pixel intensity of the lowest intensity peak was identified as gBG. […] The mean pixel intensity for all positive particles within each defined sub-region was calculated, resulting in 4 parameters: total positive pixel mean (MT, the mean intensity of the total particle fluorescence); Hoechst mean (M1, the mean intensity of the Hoechst defined region); Texas Red mean (M2, the mean intensity of the WGA-defined region); and Subtracted mean (M3, the mean intensity of the pixels excluded from the WGA- and Hoechst-defined regions). All means were corrected for the corresponding gBG.
For each set of experiments (assay+drug treatment+treatment time), positive pixel data from eight images were pooled. For each parameter, an outlier filter was applied to filter out those particles falling outside the range (mean±3SD) of the group. Next the sample mean or control mean for each parameter was obtained from each filtered group.

Row | Compound | fluorescence intensity of the YFP channel as percent of control, later time points (FIG. 10) [2] | beta-arrestin2/ubiquitin assay fluorescence, positive pixel mean (PPM) as percent of control (FIG. 12) [1] | also measured
1 | CCCC[C@@H](C=O)NC(=O)[C@H](CC(C)C)NC(=O)[C@H](CC(C)C)NC(C)=O [ALLN] (Ac-Leu-Leu-[Nle]-aldehyde) |  |  | beta-arrestin2/ubiquitin PCA signal with proteasome inhibitor (FIG. 11) ([1]; transient transfection, absence of isoproterenol, ALLN at Table 3 concentration): clearly visible in the presence of ALLN; also recorded: Signal was apparent only in the presence
2 | Cc1ccc(S(=O)(=O)/C=C/C#N)cc1 [BAY 11-7082] | had effects only at later time points |  | 
3 | CC(C)C[C@@H](C=O)NC(=O)[C@H](CC(C)C)NC(=O)[C@H](CC(C)C)NC(=O)OCc1ccccc1 [MG132] (Cbz-Leu-Leu-Leu-aldehyde) |  | significantly increased the assay signal; also recorded: increased the signal fourfold | 
4 | CC(/C=C/C(=O)NO)=C\[C@@H](C)C(=O)c1ccc(N(C)C)cc1 [Trichostatin A] |  | significantly increased the assay signal; also recorded: increased the signal fourfold | 
5 | CC(C)NCC(O)c1ccc(O)c(O)c1 (stereo not drawn) [isoproterenol] |  |  | beta-arrestin2/ubiquitin PCA fluorescence intensity after agonist (FIG. 11) ([1]; in the presence of ALLN, 60-120 minutes): caused a significant increase in fluorescence intensity; also recorded: caused a significant increase in signal
6 | pertussis toxin | had effects only at later time points |  | 
